According to patent US9243039B2, “Bipartite inhibitors of bacterial RNA polymerase: Sal-target-inhibitor/nucleoside-analog-inhibitor conjugates” (priority 2012, dated 2016):
Converted amounts (≈) assume the structure as drawn. *1 amine or outer side, *2 acyl side, *3 side chain or, on linkers, in order; H or OH if unused. Where a SMILES comes first, the peptide text is derived from it. Bridges are numbered along the chain shown (N, C = ends). [ ]: non-standard residue; d: D form. The star is where a group is joined. X4 = C[C@@H](Oc1ccc([C@H](N[*:1])C(=O)[*:2])cc1)[C@](O)(/C=C/C(=O)[*:3])CNCCCCCCNC(=O)OC(C)(C)C; X5 = C[C@@H](Oc1ccc([C@H](N[*:1])C(=O)[*:2])cc1)[C@](O)(/C=C/C(=O)[*:3])CNCCCNC(=O)OC(C)(C)C; X2 = CCCCOC[C@@](O)(/C=C/C(=O)[*:3])[C@@H](C)Oc1ccc([C@H](N[*:1])C(=O)[*:2])cc1; X1 = C[C@@H](Oc1ccc([C@H](N[*:1])C(=O)[*:2])cc1)[C@](O)(/C=C/C(=O)[*:3])CBr; Pentanoyl(2R-Me,3R-OH,4-Me) = CC(C)[C@@H](O)[C@@H](C)C(=O)*; d(aIle) = CC[C@H](C)[C@@H](N)C(=O)O; d(aThr) = C[C@@H](O)[C@@H](N)C(=O)O; NMeF = CN[C@@H](Cc1ccccc1)C(=O)O

Columns and labels:
Sal-resistant mutants = settings: Ebright et al., WO/2012/129173; cited from earlier work
[1] = tested on: Escherichia coli D21f2toIC; test: Antibacterial activity, broth microdilution, Escherichia coli D21f2tolC; format: cell-based; settings: for MIC50: Escherichia coli, D21F2TOIC, read-out: MIC50 Escherichia coli D21f2toIC
Excerpt: (§1) Antibacterial activity was quantified using broth microdilution [Clinical and Laboratory Standards Institute (CLSUNCCLS), Methods for Dilution Antimicrobial Susceptibility Tests for Bacteria That Grow Aerobically; Approved Standard, Eighth Edition. CLIS Document M07-A8 (CLIS, Wayne Pa.), 2009]. Assays with Enterobacter cloacae ATCC 13047, Pseudomonas aeruginosa ATCC10145, and Escherichia coli D21f2to1C, employed a starting cell density of 2-5×10^5 cfu/ml, Mueller Hinton II cation adjusted broth (BD Biosciences, Inc.), and an air atmosphere. Assays with Haemophilus influenzae ATCC49247 and Neisseria gonorrhoeae ATCC 19424 employed a starting cell density of 2-5×10^5 cfu/ml, Haemophilus Test Medium broth (Barry et al., 1993) and a 5% CO2/95% air atmosphere. MIC50 was defined as the minimal concentration resulting in ≧50% inhibition of bacterial growth.

Vero E6 ATCC CRL1586 = test: Cytotoxicity to mammalian cells in culture (CellTiter96); format: cell-based; settings: mammalian cells in culture
Excerpt: MICs for mammalian cells (Vero E6) in culture were quantified using CellTiter96 assay (Promega. Inc.; procedures as specified by the manufacturer). Screening data for SalA and SalB (compounds 1 and 2) and representative compounds of this invention (compounds 3-9) are presented in Tables 1-2: […]

human RNAP I/II/III = test: Radiochemical assay with human RNAP I, II and III (HeLaScribe nuclear extract); format: biochemical
Experimental: Radiochemical assays with human RNAP I, II, and III were performed essentially as described [Sawadogo and Roeder, Cell 43:165-75, 1985]. Reaction mixtures contained (20 μl): 0-100 μM test compound, 8 U HeLaScribe Nuclear Extract (Promega, Inc.), 1 μg human placental DNA (Sigma-Aldrich), 400 μM ATP, 400 μM [α^32P]UTP (0.11 Bq/fmol), 400 μM CTP, 400 μM GTP, 50 mM Tris-HCl, pH 8.0, 7 mM HEPES-NaOH, 70 mM (NH4)2SO4, 50 mM KCl, 12 mM MgCl2, 5 mM DTT, 0.1 mM EDTA, 0.08 mM phenylmethylsulfonyl fluoride, and 16% glycerol. Reaction components other than DNA and NTPs were pre-incubated 10 min at 30° C., DNA was added and reaction mixtures were incubated 15 min at 30° C., NTPs were added and reaction mixtures were incubated 60 min at 30° C. Reaction mixtures were spotted on DE81 filter discs (Whatman, Inc.; pre-wetted with water) and incubated 1 min at room temperature. Filters were washed with 3×3 ml Na2HPO4, 2×3 ml water, and 3 ml ethanol, using a filter manifold (Hoefer, Inc.). Filters were placed in scintillation vials containing 10 ml Scintiverse BD Cocktail (Thermo Fisher, Inc.), and radioactivity was quantified by scintillation counting (LS6500; Beckman-Coulter, Inc.).
(§2) Half-maximal inhibitory concentrations (IC50s) were calculated by non-linear regression in SigmaPlot (SPSS, Inc.).

Escherichia coli RNAP = Escherichia coli RNAP (Escherichia coli, UniProt P0A8T7+P0A8V2); test: Fluorescence-detected RNAP assay, Escherichia coli RNAP; format: biochemical; settings: for IC50: fluorescent-detected RNAP assays
Escherichia coli RNAP, sequence (P0A800 whole entry, the tested form may be a part): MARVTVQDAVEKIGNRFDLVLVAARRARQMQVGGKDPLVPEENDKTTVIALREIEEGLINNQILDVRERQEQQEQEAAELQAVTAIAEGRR
Escherichia coli RNAP, sequence (P00579 whole entry, further chain, the tested form may be a part): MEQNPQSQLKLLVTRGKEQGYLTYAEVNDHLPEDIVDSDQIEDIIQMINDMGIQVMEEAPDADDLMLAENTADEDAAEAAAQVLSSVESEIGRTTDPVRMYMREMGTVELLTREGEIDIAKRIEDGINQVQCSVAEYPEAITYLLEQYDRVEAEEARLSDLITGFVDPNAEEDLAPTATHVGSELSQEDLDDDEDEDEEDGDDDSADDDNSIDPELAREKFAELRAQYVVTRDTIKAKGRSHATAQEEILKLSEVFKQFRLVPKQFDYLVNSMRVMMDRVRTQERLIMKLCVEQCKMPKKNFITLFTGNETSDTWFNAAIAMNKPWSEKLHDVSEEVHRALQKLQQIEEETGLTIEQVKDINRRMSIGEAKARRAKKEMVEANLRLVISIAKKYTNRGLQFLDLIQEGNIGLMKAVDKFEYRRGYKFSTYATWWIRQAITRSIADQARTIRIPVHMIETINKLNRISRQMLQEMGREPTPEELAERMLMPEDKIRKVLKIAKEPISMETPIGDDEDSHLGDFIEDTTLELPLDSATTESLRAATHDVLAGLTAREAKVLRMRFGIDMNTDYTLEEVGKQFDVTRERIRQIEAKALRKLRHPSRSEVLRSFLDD
Escherichia coli RNAP, sequence (P0A8V2 whole entry, the tested form may be a part): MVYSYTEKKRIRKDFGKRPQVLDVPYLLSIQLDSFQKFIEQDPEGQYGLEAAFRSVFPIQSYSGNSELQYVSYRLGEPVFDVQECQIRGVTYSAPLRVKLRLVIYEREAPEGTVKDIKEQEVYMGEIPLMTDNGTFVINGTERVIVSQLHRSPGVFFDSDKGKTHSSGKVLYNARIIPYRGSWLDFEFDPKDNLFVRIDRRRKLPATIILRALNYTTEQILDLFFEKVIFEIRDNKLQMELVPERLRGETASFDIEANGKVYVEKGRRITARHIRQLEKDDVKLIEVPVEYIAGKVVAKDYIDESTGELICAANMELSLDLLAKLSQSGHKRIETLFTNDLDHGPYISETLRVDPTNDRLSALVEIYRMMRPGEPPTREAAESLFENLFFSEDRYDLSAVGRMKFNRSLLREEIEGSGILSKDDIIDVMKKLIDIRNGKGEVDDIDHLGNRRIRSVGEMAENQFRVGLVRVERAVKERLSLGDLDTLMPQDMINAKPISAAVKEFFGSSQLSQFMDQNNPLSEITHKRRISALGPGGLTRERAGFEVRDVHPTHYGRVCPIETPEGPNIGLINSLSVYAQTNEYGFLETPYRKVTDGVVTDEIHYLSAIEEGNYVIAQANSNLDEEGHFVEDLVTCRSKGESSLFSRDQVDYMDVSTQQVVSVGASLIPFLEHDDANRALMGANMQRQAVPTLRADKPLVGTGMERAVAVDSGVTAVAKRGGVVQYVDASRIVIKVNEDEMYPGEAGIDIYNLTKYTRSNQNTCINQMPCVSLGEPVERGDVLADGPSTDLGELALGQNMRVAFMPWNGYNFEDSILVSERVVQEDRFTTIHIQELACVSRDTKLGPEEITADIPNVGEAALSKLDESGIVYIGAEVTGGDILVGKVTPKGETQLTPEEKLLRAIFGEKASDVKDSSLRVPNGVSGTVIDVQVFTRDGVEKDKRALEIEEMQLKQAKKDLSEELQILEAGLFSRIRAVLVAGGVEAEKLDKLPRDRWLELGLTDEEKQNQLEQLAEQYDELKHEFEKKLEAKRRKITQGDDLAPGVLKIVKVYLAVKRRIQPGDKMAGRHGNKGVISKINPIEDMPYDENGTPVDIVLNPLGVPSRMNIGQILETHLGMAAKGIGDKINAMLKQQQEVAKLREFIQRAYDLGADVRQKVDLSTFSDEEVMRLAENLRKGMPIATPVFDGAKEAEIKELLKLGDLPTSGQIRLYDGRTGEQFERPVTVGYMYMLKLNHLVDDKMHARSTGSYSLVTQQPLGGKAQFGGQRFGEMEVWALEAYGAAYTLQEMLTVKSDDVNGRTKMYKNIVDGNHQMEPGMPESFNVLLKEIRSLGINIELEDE
Escherichia coli RNAP, sequence (P0A8T7 whole entry, the tested form may be a part): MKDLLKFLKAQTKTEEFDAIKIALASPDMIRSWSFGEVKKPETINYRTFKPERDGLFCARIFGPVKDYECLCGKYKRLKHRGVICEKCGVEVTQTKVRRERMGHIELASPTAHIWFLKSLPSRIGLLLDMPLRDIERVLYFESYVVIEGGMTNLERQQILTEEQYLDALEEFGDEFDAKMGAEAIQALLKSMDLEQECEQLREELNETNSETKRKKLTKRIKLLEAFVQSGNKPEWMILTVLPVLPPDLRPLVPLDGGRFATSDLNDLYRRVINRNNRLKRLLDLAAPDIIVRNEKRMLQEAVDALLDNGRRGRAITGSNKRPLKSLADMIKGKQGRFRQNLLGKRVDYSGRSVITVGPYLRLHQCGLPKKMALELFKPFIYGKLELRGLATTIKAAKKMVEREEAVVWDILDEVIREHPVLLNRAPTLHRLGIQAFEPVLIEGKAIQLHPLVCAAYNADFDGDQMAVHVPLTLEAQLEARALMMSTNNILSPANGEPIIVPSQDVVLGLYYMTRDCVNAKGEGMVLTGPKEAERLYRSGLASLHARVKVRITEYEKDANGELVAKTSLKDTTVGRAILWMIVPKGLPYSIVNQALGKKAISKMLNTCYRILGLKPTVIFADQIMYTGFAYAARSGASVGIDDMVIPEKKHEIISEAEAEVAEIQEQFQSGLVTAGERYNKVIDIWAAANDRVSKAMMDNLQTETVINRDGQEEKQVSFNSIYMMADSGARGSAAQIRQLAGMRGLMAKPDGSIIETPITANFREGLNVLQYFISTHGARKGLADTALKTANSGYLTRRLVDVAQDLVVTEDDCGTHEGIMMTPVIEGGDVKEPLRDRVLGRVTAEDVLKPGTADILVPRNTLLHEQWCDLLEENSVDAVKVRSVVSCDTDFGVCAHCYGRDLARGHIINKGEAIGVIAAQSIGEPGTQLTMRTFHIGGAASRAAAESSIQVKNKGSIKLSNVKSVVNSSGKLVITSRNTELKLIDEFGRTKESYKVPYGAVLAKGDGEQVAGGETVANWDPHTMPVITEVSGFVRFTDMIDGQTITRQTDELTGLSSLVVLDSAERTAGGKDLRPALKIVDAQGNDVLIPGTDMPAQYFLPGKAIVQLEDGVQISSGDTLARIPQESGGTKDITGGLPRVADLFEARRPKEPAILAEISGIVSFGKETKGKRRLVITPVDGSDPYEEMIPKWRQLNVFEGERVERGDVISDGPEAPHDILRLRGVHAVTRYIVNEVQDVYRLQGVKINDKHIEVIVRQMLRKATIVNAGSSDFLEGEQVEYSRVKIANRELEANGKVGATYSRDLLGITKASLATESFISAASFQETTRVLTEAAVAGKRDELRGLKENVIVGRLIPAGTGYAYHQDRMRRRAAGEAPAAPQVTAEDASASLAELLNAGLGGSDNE
Escherichia coli RNAP, sequence (P0A7Z4 whole entry, further chain, the tested form may be a part): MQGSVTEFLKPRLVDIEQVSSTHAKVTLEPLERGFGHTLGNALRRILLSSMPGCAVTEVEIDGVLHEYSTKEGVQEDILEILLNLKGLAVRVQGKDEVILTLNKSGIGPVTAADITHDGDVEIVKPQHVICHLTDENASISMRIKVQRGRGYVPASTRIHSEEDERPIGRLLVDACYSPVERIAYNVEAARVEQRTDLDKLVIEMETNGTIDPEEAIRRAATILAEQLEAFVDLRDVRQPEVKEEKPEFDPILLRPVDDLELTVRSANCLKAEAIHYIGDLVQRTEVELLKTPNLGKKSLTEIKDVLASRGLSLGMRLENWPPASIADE
Experimental: Fluorescence-detected RNAP assays with Escherichia coli RNAP were performed by a modification of the procedure of Kuhlman et al., 2004 [Kuhlman et al., Anal. Biochem. 324:183-190, 2004]. Reaction mixtures contained (20 μl): […] test compound, 75 nM Escherichia coli RNAP […] holoenzyme, 20 nM 384 by DNA fragment containing the bacteriophage T4 N25 promoter, 100 μM ATP, 100 μM GTP, 100 μM UTP, 100 μM CTP, 50 mM Tris-HCl, pH 8.0, 100 mM KCl, 10 mM MgCl2, 1 mM DTT, 10 μg/ml bovine serum albumin, and 5.5% glycerol. Reaction components other than DNA and NTPs were pre-incubated for 10 min at 37° C. Reactions were carried out by addition of DNA and incubation for 5 min at 37° C., followed by addition of NTPs and incubation for 60 min at 37° C. DNA was removed by addition of 1 μl 5 mM CaCl2 and 2 U DNaseI (Ambion, Inc.), followed by incubation for 90 min at 37° C. RNA was quantified by addition of 100 μl RiboGreen RNA Quantitation Reagent (Invitrogen, Inc.; 1:500 dilution in Tris-HCl, pH 8.0, 1 mM EDTA), followed by incubation for 10 min at 25° C., followed by measurement of fluorescence intensity [excitation wavelength=485 nm and emission wavelength=535 nm; QuantaMaster QM1 spectrofluorometer (PTI, Inc.)].
as §2

[2] = tested on: Enterobacter cloacae ATCC 13047; test: Antibacterial activity, broth microdilution, Enterobacter cloacae; format: cell-based; settings: Enterobacter cloacae, ATCC13047; minimal concentration resulting in ≧50% inhibition of bacterial growth
Excerpt: as §1

| SMILES | cross-resistance of Sal-resistant mutants to the compound (Sal-resistant mutants) | MIC50 [1] | antibacterial activity ([1]; in words, refers to Table 2) | MIC50 Vero E6 ATCC CRL1586 (Vero E6 ATCC CRL1586) | IC50 (human RNAP I/II/III) | IC50 (Escherichia coli RNAP) | RNAP-inhibitory activity (Escherichia coli RNAP; in words, refers to Table 1) | MIC50 [2] |
| --- | --- | --- | --- | --- | --- | --- | --- | --- |
| ONC(=Nc1ccccc1)c1cccc(C(F)(F)F)c1 [CBR703] | not cross-resistant |  |  |  |  |  |  |  |
| CC[C@H](C)[C@H]1NC(=O)[C@@H](NC(=O)[C@H](C)[C@H](O)C(C)C)[C@@H](C)OC(=O)[C@@H]2COC(=O)CNC(=O)/C=C/[C@](O)(CBr)[C@@H](C)Oc3ccc(cc3)[C@H](NC1=O)C(=O)N(C)[C@@H](Cc1ccccc1)C(=O)N[C@H]([C@@H](C)O)C(=O)N2 [Sal-Br (3)] ({Pentanoyl(2R-Me,3R-OH,4-Me)}-T[d(aIle)][X1][NMeF][d(aThr)]S; ester 1-C; linker 3-6 via G) |  | 0.049 µg/mL (≈ 0.0445 µM) | essentially full | >100 µg/mL | > 100 µM | 3 µM | essentially full | 1.56 µg/mL (≈ 1.42 µM) |
| CC[C@H](C)[C@H]1NC(=O)[C@@H](NC(=O)[C@H](C)[C@H](O)C(C)C)[C@@H](C)OC(=O)[C@@H]2COC(=O)CNC(=O)/C=C/[C@](O)(CNCCCNC(=O)OC(C)(C)C)[C@@H](C)Oc3ccc(cc3)[C@H](NC1=O)C(=O)N(C)[C@@H](Cc1ccccc1)C(=O)N[C@H]([C@@H](C)O)C(=O)N2 [Sal-NH(CH2)3NHBoc (7)] ({Pentanoyl(2R-Me,3R-OH,4-Me)}-T[d(aIle)][X5][NMeF][d(aThr)]S; ester 1-C; linker 3-6 via G) |  | 1.56 µg/mL (≈ 1.31 µM) |  |  |  | 0.6 µM |  | 100 µg/mL (≈ 83.7 µM) |
| CC[C@H](C)[C@H]1NC(=O)[C@@H](NC(=O)[C@H](C)[C@H](O)C(C)C)[C@@H](C)OC(=O)[C@@H]2COC(=O)CNC(=O)/C=C/[C@](O)(CNCCCCCCNC(=O)OC(C)(C)C)[C@@H](C)Oc3ccc(cc3)[C@H](NC1=O)C(=O)N(C)[C@@H](Cc1ccccc1)C(=O)N[C@H]([C@@H](C)O)C(=O)N2 [Sal-NH(CH2)6NHBoc (9)] ({Pentanoyl(2R-Me,3R-OH,4-Me)}-T[d(aIle)][X4][NMeF][d(aThr)]S; ester 1-C; linker 3-6 via G) |  | 0.78 µg/mL (≈ 0.631 µM) |  |  |  | 1 µM |  | 25 µg/mL (≈ 20.2 µM) |
| CCCCOC[C@@]1(O)/C=C/C(=O)NCC(=O)OC[C@@H]2NC(=O)[C@@H]([C@@H](C)O)NC(=O)[C@H](Cc3ccccc3)N(C)C(=O)[C@@H](NC(=O)[C@@H]([C@@H](C)CC)NC(=O)[C@@H](NC(=O)[C@H](C)[C@H](O)C(C)C)[C@@H](C)OC2=O)c2ccc(cc2)O[C@@H]1C [Sal-OBu A (5A)] ({Pentanoyl(2R-Me,3R-OH,4-Me)}-T[d(aIle)][X2][NMeF][d(aThr)]S; ester 1-C; linker 3-6 via G) |  | 1.56 µg/mL (≈ 1.43 µM) |  |  |  | 6 µM |  | 12.5 µg/mL (≈ 11.4 µM) |
